The text below walks through data of ChEMBL document CHEMBL3872213, “Synthesis and biological activity of furoxan derivatives against Mycobacterium tuberculosis” (Eur J Med Chem, 2016).

Series [1] has as its system Mycobacterium tuberculosis. In words: microbe, parasite or virus in culture. Conditions: H37Rv ATCC 27294, 168 h.
Description: Antitubercular activity against Mycobacterium tuberculosis H37Rv ATCC 27294 after 7 days by REMA method
Series [2] concerns Mycobacterium tuberculosis. Format: functional. Conditions: H37Rv.
The nature of series [3]: in vitro. Conditions: mouse, J774A.1 cells.
Description: Selectivity index, ratio of IC50 for mouse J774A.1 cells to MIC90 for Mycobacterium tuberculosis H37Rv ATCC 27294
Series [4] in a line: Induction of nitric oxide production assessed as nitrite level at 10^-4M measured after 1 hr in presence 1:50 molar excess of L-cysteine by Griess reagent based spectrophotometer relative to control. Format: physicochemical. Conditions: 100 µM. (In general: Griess reagent forms a coloured azo dye with nitrite.)
The nature of series [5]: Cytotoxicity against mouse J774A.1 cells measured after 24 hrs by resazurin based fluorescence method. It counts as toxicity, J774.A1. A general note: Resazurin is reduced to fluorescent resorufin, in cell work by metabolically active cells.
Series [6] can be described thus: n-octanol-water partition coefficient, log P of the compound by HPLC method. Format: physicochemical.
Series [7] has as its system Mycobacterium tuberculosis. It counts as functional. Conditions: H37Rv ATCC 27294, 168 h.
For series [8], the system named is Mycobacterium tuberculosis. It counts as functional. Conditions: H37Rv ATCC 27294, 168 h. This is another data set of the same source.
A short description of series [9]: Cytotoxicity against human MRC5 cells measured after 24 hrs by resazurin based fluorescence method. Format: toxicity, cell-based.
Series [10] is described as follows: in vitro. Conditions: human, MRC5 cells.
Description: Selectivity index, ratio of IC50 for human MRC5 cells to MIC90 for Mycobacterium tuberculosis H37Rv ATCC 27294
The nature of series [11]: Chemical stability in pH 7.4 PBS buffer assessed as compound degradation after 24 hrs by HPLC-MS/MS method. It counts as physicochemical. The settings on record: read-out: Drug degradation.
The nature of series [12]: Chemical stability in pH 5 PBS buffer after 6 hrs by HPLC-MS/MS method. It counts as physicochemical. Conditions: pH 5, 6 h.
Series [13] can be described thus: Chemical stability in pH 1 PBS buffer assessed as compound degradation after 1 hr by HPLC-MS/MS method. It counts as physicochemical. The settings on record: read-out: Drug degradation.
A short description of series [14]: Chemical stability in pH 7.4 PBS buffer assessed as compound degradation after 6 hrs by HPLC-MS/MS method. It counts as physicochemical. The settings on record: read-out: Drug degradation.
The nature of series [15]: Chemical stability in pH 5 PBS buffer assessed as compound degradation after 24 hrs by HPLC-MS/MS method. The settings on record: read-out: Drug degradation. It counts as physicochemical.
A short description of series [16]: Chemical stability in pH 9 PBS buffer assessed as compound degradation after 1 hr by HPLC-MS/MS method. It counts as physicochemical. Conditions: read-out: Drug degradation.
Series [17] concerns Mycobacterium tuberculosis. Format: functional. The settings on record: H37Rv ATCC 27294, 144 h.

Each structure is given as a SMILES string. In brackets after ≈: the same amount, converted by molar mass.

For `COc1cc(/C=N/c2ccc(O)cc2)cc(OC)c1OC`, in series [1], the MIC90 turned out to be 15.6 µM (≈ 4.48 µg/mL).

Take `NC[C@H]1O[C@H](O[C@H]2[C@H](O)[C@@H](O[C@H]3O[C@H](CO)[C@@H](O)[C@H](N)[C@H]3O)[C@H](N)C[C@@H]2N)[C@H](O)[C@@H](O)[C@@H]1O` [KANAMYCIN]: the MIC90 in series [2] turned out to be 3.4 µM (≈ 1.65 µg/mL).

Regarding `O=Cc1cccc(Oc2no[n+]([O-])c2S(=O)(=O)c2ccccc2)c1`, the selectivity ratio in series [3] was determined as 2. For the same compound, the Activity in series [4] stood at 27.1%. The compound also yielded an MIC90 in series [1] of 20.9 µM (≈ 7.23 µg/mL). In addition, in series [5], the IC50 (usually the concentration at which inhibition is half-maximal) at 24 h was 5.6 µM.

`CN(C)c1ccc(/C=N/c2ccc(O)cc2)cc1` gave an MIC90 in series [1] of 15.6 µM (≈ 3.75 µg/mL).

Turning to `O=C(N/N=C/c1ccc(O)cc1)c1ccncc1`, the MIC90 was determined as 1.04 µM (≈ 0.251 µg/mL) in [1] and 1 µM (≈ 0.241 µg/mL) in series [2].

Regarding `O=[N+]([O-])O[C@H]1CO[C@H]2[C@@H]1OC[C@H]2O[N+](=O)[O-]` [ISOSORBIDE DINITRATE], the Activity in series [4] is 7.17 to 7.5 mol/mol.

As for `O=C(N/N=C/c1cccc(O)c1)c1ccncc1`, in series [1], the MIC90 is 104 µM (≈ 25 µg/mL).

Turning to `O=C(NC(=S)N(c1ccccc1)c1ccccc1)c1ccccc1`, the MIC90 in series [1] was 25 µM (≈ 8.31 µg/mL).

In turn, `NC(=O)c1c(CBr)no[n+]1[O-]` displayed an MIC90 in [1] of 3 µM (≈ 0.666 µg/mL).

`O=[N+]([O-])c1ccc(/C=N/c2ccc(O)cc2)cc1`: the MIC90 in [1] stood at 15.6 µM (≈ 3.78 µg/mL).

Regarding `O=Cc1ccc(Oc2no[n+]([O-])c2-c2ccccc2)cc1`, the Activity in series [4] was 19.4%. The MIC90 in series [1] is > 62 µM.

In the case of `O=C(CC(=O)C(F)(F)F)c1ccccc1`, the MIC90 in [1] is 9.61 µM (≈ 2.08 µg/mL).

Regarding `Cc1c(Oc2ccccc2/C=N/NC(=O)c2ccncc2)no[n+]1[O-]`, the Activity in series [4] was determined as 0.35%. Besides, the MIC90 in [1] is > 62 µM. Further, the logP – broadly, a log measure of how a compound divides between an organic and an aqueous phase – in [6] was determined as 1.4.

In the case of `CNC(=S)N/N=C(\C)c1ccccn1`, the MIC90 in [7] is 7.8 µM (≈ 1.62 µg/mL).

For `Cc1c(Oc2ccccc2C=O)no[n+]1[O-]`, the Activity in series [4] was determined as 0%. Further, the MIC90 in series [1] was > 62 µM.

The compound `c1csc(-c2nc3ccccc3s2)c1` came in with an MIC90 in series [1] of 50 µM (≈ 10.9 µg/mL).

Take `O=Cc1ccc(Oc2no[n+]([O-])c2S(=O)(=O)c2ccccc2)cc1`: in series [3], the selectivity ratio was 0.1. The Activity in series [4] is 24.4%. The compound also showed an MIC90 in [1] of 26 µM (≈ 9.01 µg/mL). For the same compound, the IC50 at 24 h in [5] amounted to 2.2 µM.

Take `O=C(N/N=C/c1ccccc1Oc1no[n+]([O-])c1S(=O)(=O)c1ccccc1)c1ccncc1`: the selectivity ratio in [3] is 1.25; in series [10], 3.78. Further, the Activity in series [4] was found to be 44.2%. In addition, the MIC90 in [8] was > 62 µM; in series [1], 8.6 µM (≈ 4 µg/mL). Besides, the values for the IC50 at 24 h in series [9] and in [5] were 34.4 µM and 10.8 µM, respectively. The compound further had a lipophilicity (logP) in series [6] of 2.2.

In [1], `CCCCN(CCCC)C(=S)NC(=O)c1ccccc1` returned an MIC90 of 25 µM (≈ 7.31 µg/mL).

Consider `O=C(N/N=C/c1ccccc1Oc1no[n+]([O-])c1-c1ccccc1)c1ccncc1`, for which the Activity in [4] is 11.2%. Besides, the MIC90 in series [1] is > 62 µM. The log partition coefficient (logP) in series [6] was found to be 2.7.

On to `O=C(CC(=O)C(F)(F)F)c1cccs1`, for which the MIC90 in [1] is 10.9 µM (≈ 2.42 µg/mL).

For `NNC(=O)c1ccncc1` [ISONIAZID], in series [4], the Activity came out at 0%. This compound came in with an MIC90 in series [1] of 0.11 µM (≈ 0.0151 µg/mL).

As to `O=C(N/N=C/c1ccc(Oc2no[n+]([O-])c2S(=O)(=O)c2ccccc2)cc1)c1ccncc1`, the figures for the selectivity ratio in [3] and in [10] were 12 and 20.3, respectively. Further, in [4], the Activity was 43.5%. The MIC90 in series [8] was > 62 µM; in [1], 1.03 µM (≈ 0.479 µg/mL). Further, the concentration for half-maximal inhibition (IC50) at 24 h was 43 µM in [9] and 10.8 µM in series [5]. Besides, the logP in [6] stood at 2.1. Further, the degraded at 24 h in [11] and in [15] was 20% each time. Also, in series [12], the Stability result is “Stable”. For the same compound, the degraded at 1 h in [13] stood at 90%; in series [16], 50%. The degraded at 6 h in series [14] amounted to 15%.

Turning to `N[C@@H]1CONC1=O` [CYCLOSERINE], the MIC90 in [2] worked out at 245 µM (≈ 25 µg/mL).

Turning to `Cc1c(Oc2cccc(C=O)c2)no[n+]1[O-]`, in [4], the Activity amounted to 0%. The MIC90 in series [1] is > 62 µM.

For `C/C(=N\NC(=S)Nc1ccccc1)c1ccccn1`, the MIC90 in [7] was found to be 15.6 µM (≈ 4.22 µg/mL).

Regarding `O=C(N/N=C/c1ccc(Oc2no[n+]([O-])c2-c2ccccc2)cc1)c1ccncc1`, the selectivity ratio was determined as 34.8 in series [3] and 52.7 in series [10]. Further, in series [4], the Activity was found to be 7.33%. Besides, the MIC90 is > 62 µM in series [8] and 11.8 µM (≈ 4.74 µg/mL) in [1]. The concentration for half-maximal inhibition (IC50) at 24 h is 623 µM in series [9] and 409 µM in [5]. The compound also came in with a logP in [6] of 2.9.

Take `CC(C)COC(=O)c1cnccn1`: in [17], the MIC90 amounted to 2 µM (≈ 0.36 µg/mL).

For `CCN(CC)C(=S)NC(=O)c1ccco1`, the MIC90 in [1] amounted to 25 µM (≈ 5.66 µg/mL).

Compound `C/C(=N\NC(N)=S)c1ccccn1` displayed an MIC90 in [7] of 31.3 µM (≈ 6.08 µg/mL).

On to `O=C(N/N=C/c1cccc(Oc2no[n+]([O-])c2-c2ccccc2)c1)c1ccncc1`, for which the Activity in [4] is 6.87%. In addition, the MIC90 in [1] was > 62 µM. The compound further returned a logP in [6] of 2.9.

Consider `NC(=O)c1cnccn1` [PYRAZINAMIDE], for which the MIC90 in [2] was > 48 µM.

Regarding `CO[C@H]1/C=C/O[C@@]2(C)Oc3c(C)c(O)c4c(O)c(c(/C=N/N5CCN(C)CC5)c(O)c4c3C2=O)NC(=O)/C(C)=C\C=C\[C@H](C)[C@H](O)[C@@H](C)[C@@H](O)[C@@H](C)[C@H](OC(C)=O)[C@@H]1C` [RIFAMPIN], the Activity in series [4] worked out at 0%. Further, the MIC90 in [1] amounted to 0.5 µM (≈ 0.411 µg/mL).

`O=S(=O)(c1ccccc1)c1no[n+]([O-])c1-c1ccccc1` came in with an MIC90 in series [1] of 82 µM (≈ 24.8 µg/mL).

`CN(C)C(=S)NC(=O)c1ccccc1` gave an MIC90 in [1] of 25 µM (≈ 5.21 µg/mL).

For `O=C(N/N=C/c1cccc(Oc2no[n+]([O-])c2S(=O)(=O)c2ccccc2)c1)c1ccncc1`, the selectivity ratio in [3] worked out at 3; in [10], 14.1. The Activity in [4] amounted to 38.5%. The MIC90 in series [8] is > 62 µM; in [1], 1.61 µM (≈ 0.749 µg/mL). For the same compound, the IC50 at 24 h was determined as 30.1 µM in series [9] and 4.3 µM in [5]. Moreover, the log partition coefficient (logP) in [6] was 2.3.

Take `O=Cc1ccccc1Oc1no[n+]([O-])c1S(=O)(=O)c1ccccc1`: the selectivity ratio in series [3] was 0.4. Also, the Activity in series [4] was found to be 21.2%. This compound registered an MIC90 in series [1] of 20.2 µM (≈ 7.01 µg/mL). This compound also gave a half-maximal inhibitory concentration (IC50) at 24 h in series [5] of 7.4 µM.

`O=C(N/N=C/c1ccccc1O)c1ccncc1` [SALINAZID] returned an MIC90 in series [1] of 12.4 µM (≈ 3 µg/mL).

As for `O=Cc1cccc(Oc2no[n+]([O-])c2-c2ccccc2)c1`, the Activity in series [4] was determined as 23.1%. For the same compound, in [1], the MIC90 is > 62 µM.

Consider `Cc1c(Oc2ccc(C=O)cc2)no[n+]1[O-]`, for which the Activity in series [4] was determined as 0%. Besides, the MIC90 in [1] was > 62 µM.

Regarding `Cc1c(Oc2cccc(/C=N/NC(=O)c3ccncc3)c2)no[n+]1[O-]`, the Activity in [4] was found to be 0.16%. Further, the MIC90 in series [1] was > 62 µM. Also, the log partition coefficient (logP) in series [6] worked out at 1.3.

In series [1], `O=S(=O)(c1ccccc1)c1no[n+]([O-])c1S(=O)(=O)c1ccccc1` gave an MIC90 of 6.2 µM (≈ 2.27 µg/mL).

On to `O=Cc1ccccc1Oc1no[n+]([O-])c1-c1ccccc1`, for which, in series [4], the Activity came to 25.1%. The MIC90 in [1] is > 62 µM.

In series [1], `COc1ccc(/C=N/CC/N=C/c2ccc(OC)cc2)cc1` had an MIC90 of 25 µM (≈ 7.41 µg/mL).

Turning to `Cc1c(Oc2ccc(/C=N/NC(=O)c3ccncc3)cc2)no[n+]1[O-]`, in series [4], the Activity is 2.02%. Besides, the MIC90 in [1] was > 62 µM. In series [6], this compound showed a log partition coefficient (logP) of 1.3.
